According to US10780061B2, “Composition comprising farnesol and use thereof” (Daegu Gyongbuk Institute of Science and Technology, priority 2014, dated 2020):

Experiments:
PGC-1α = experiment: Immunoblotting of tibialis anterior muscles of mice administered with farnesol; assay type: in vivo, mouse; conditions: 5 month-old mice, feed with 0.5% w/w farnesol, 5 weeks
Protocol: 5 month-old C57BL/6 male mice (weighing 22 g) are maintained at a temperature of 22±2° C., humidity of 55±5%, and a light-dark cycle of 12:12 hours. An animal feed containing 0.5% w/w farnesol was supplied by Jung-Ang Lab Animal Inc. A control group is fed with a feed equivalent to a general feed for experimental animals, excluding that no 0.5% w/w farnesol is contained. They are allowed free access to drinking water. Skeletal muscles were separated from the mice and control mouse fed with farnesol for 5 weeks, and subjected to immunoblot analysis. In all the following Examples, administration or feeding of mouse is performed as above, unless otherwise mentioned. […] In this specification, assuming that human life expectancy of 100 years corresponds to mouse life expectancy of 3 years, human life expectancy is estimated from the relationship.

[1] = system: extensor digitorum longus muscle fibers; experiment: Immunohistochemistry of muscle fiber type (MHC2a/MHC2b) in extensor digitorum longus muscle; assay type: in vivo, mouse
Source text: To examine distribution of 2a type muscle fiber and 2b type muscle fiber, extensor digitorum longus muscles of mice administered with farnesol for 5 weeks are subjected to immunohistochemistry. 2a type muscle fiber is an oxidative muscle fiber type, and there are two types: aerobic, that is, oxygen-dependent energy source and anaerobic, that is, oxygen-independent energy source. 2b type muscle fiber is a glycolytic muscle fiber type, and includes only anaerobic energy source. Frozen sections stored in a deep freezer of -80° C. are washed with 1×PBS twice, and fixed with 4% paraformaldehyde at room temperature for 15 minutes, and then washed with 1×PBS twice. The tissue and a permeabilization buffer (0.2% Triton-X/PBS) are reacted at room temperature for 30 minutes, and washed with 1×PBS twice. The tissue and Proteinase K are reacted at 37° C. for 10 minutes for antigen retrieval, and washed with 1×PBS twice, and blocked in a blocking buffer (0.1% gelatin, 5% goat serum, 0.5% BSA, and 0.1% Triton-X) for 1 hr. As a primary antibody, a rabbit antibody specifically binding to MHC2a or MHC2b is diluted with the blocking buffer at a ratio of 1:500 and reacted at 4° C. for 12 hrs, followed by washing with 1×PBS twice. A secondary antibody, anti-rabbit antibody is reacted, followed by washing 1×PBS twice. After sealing, a fluorescence microscope (Nikon, body: Ti-u, camera: DS-RI1, program: NIS-elements BR 3.1) was used for analysis. Farnesol is administered to mice in the same manner as in Section 3 of Example 2, except that 22-month-old mice are used instead of 5-month-old mice and administration is performed for 4 months instead of 5 weeks, and changes in the skeletal muscle type are examined.

[2] = Glucose tolerance test of old mice; assay type: in vivo; conditions: old mouse, 1 g/kg glucose i.p. after overnight fast
Protocol: 22-month-old female mice (weighing 30 g) are fed with a control diet and a farnesol diet for 4 months. That is, 22-month-old mice are fed for 4 months, and then 26-month-old mice are analyzed. […] The same mouse is used as a control group, except that it is fed with a diet containing no farnesol. Muscle strength, energy expenditure, glucose tolerance, and fat accumulation of each mouse are evaluated.

PARIS = PARIS protein and transcriptional levels in extensor digitorum longus muscles of old mouse; assay type: in vivo; conditions: 24-month-old mouse, farnesol 5 weeks, vs old mouse without farnesol
[3] = system: PARIS-overexpressing muscles; experiment: SDH staining of PARIS-overexpressing tibialis anterior muscles; assay type: in vivo, mouse; conditions: 22-month-old mice, PARIS-GFP adenovirus in tibialis anterior muscle, 4 days
Protocol: Control-GFP adenovirus and PARIS-GFP adenovirus are injected into the tibialis anterior muscles of 22-month-old mice (female, body weight of 30 g), respectively. The old mice are fed with a predetermined diet, and 4 days later, muscles are collected and subjected to histological staining and qRT-PCR. For PARIS overexpression, human full-length PARIS cDNA (IMAGE: 30347892; Open Biosystems) (SEQ ID NO:9) is introduced into BamH1 and EcoR1 restriction sites of a viral vector, AAV/CBA-WPRE-bGHpA (containing chicken beta-actin (CBA) promoter and woodchuck hepatitis virus post-transcriptional-regulatory element (WPRE), and bovine growth hormone polyadenylation signal sequence) to prepare a full-length PARIS cDNA-containing AAV/CBA-WPRE-bGHpA vector, and this vector is introduced into the adenovirus-introduced cells. A high titer adenovirus […] is a viral vector manufactured by Viral Vector Core Facility (University of Iowa Carver College). Virus transduction efficiency is evaluated by GFP fluorescence. To evaluate PARIS overexpression and administration effect of farnesol, frozen sections of tibialis anterior muscles are stained for SDH enzyme activity.
Further, similar to the result in C2C12 myoblast models, an oxidative metabolism reduced by PARIS overexpression is also recovered by farnesol treatment in animal models. […]

PARIS, PGC-1α = experiment: Western blotting of hind limb muscles, high fat diet for 3 months; assay type: in vivo, mouse; conditions: high fat diet with 0.5% compound
Source text: To prepare the PGC-1α-inhibited model, 3-month-old mouse (female, body weight of 20 g) is fed with high fat diet, in which fat is increased to 60%, compared to a negative control group, for 5 days (short-term effect) or 3 months (long-term effect). The negative control group is fed with a general diet. Farnesol is mixed in the high fat diet at a content of 0.5% (weight of farnesol/weight of diet). A positive control group is fed with high fat diet containing a type II diabetes drug, metformin at a content of 0.5% (weight of metformin/weight of diet). Mice are fed with the general diet, the high fat diet, and the high fat diet containing farnesol or metformin for 3 months, and then hind limbs are removed to analyze muscle differentiation and mitochondrial enzyme activity.

[4] = cited from earlier work
[5] = 5-month-old mice, farnesol orally 5 weeks

**Q.** What does the source list for `CC(C)=CCC/C(C)=C/CC/C(C)=C/CO` [farnesol, (2E,6E)-3,7,11-trimethyldodeca-2,6,10-trien-1-ol]?
**A.** expression of PGC-1α in tibialis anterior muscle (PGC-1α): increased; expression of cytochrome C in tibialis anterior muscle (PGC-1α): increased; diameter of oxidative 2a type muscle fiber in EDL [1, 5]: increased; number of glycolytic 2b type muscle fiber in EDL [1, 5]: decreased; number of oxidative 2a type muscle fiber in EDL [1, 5]: increased; number of oxidative 2a type muscle fiber in EDL compared to control ([1]; 22-month-old mice, farnesol 4 months): about 1.4 times; blood glucose level in glucose tolerance test [2]: remarkably low; protein expression level of PARIS in EDL (PARIS): remarkably decreased; transcriptional level of PARIS in EDL (PARIS): remarkably decreased; oxidative metabolism (SDH staining) reduced by PARIS overexpression [3]: recovered; decreased PGC-1α expression by high fat diet (PARIS, PGC-1α): inhibited; increased PARIS level by high fat diet (PARIS, PGC-1α): inhibited; lethal dose (LD) for 50% mouse mortality [4]: 8,765 mg per mouse body weight (kg)
